Measured values taken from patent EP0232017A1 (priority 1986, dated 1987).

What follows are compounds tested on anaerobes and Gram positive aerobes. Details: dipped-disc Biospectrum assay at 1 mg/ml; result in words, zone sizes only in image Tables XIII-XV.
Assay type: cell-based

Structure (SMILES)	activity vs. anaerobes and Gram positive aerobes
CCCCCC(=O)N1C(=O)[C@@H]2CCCC[C@@H]21 (relative stereo) [Example 94, N-Hexanoyl-cis-3,4-tetramethylene-2-azetidinone]	high activity
CCCCC(=O)N1CC(C(C)C)C1=O (racemic) [2-azetidinone, 3-(1-methylethyl)-1-(1-oxopentyl)-, (±)-]	high activity
CC(=O)N1CC(C(C)C)C1=O (racemic) [2-azetidinone, 1-acetyl-3-(1-methylethyl)-, (±)-]	high activity
CCCCCC(=O)N1CC(C(C)C)C1=O (stereo not drawn) [2-azetidinone, 3-(1-methylethyl)-1-(1-oxohexyl)-]	high activity
CCCC(=O)N1CC(C(C)C)C1=O (stereo not drawn) [2-azetidinone, 3-(1-methylethyl)-1-(1-oxobutyl)-]	high activity
CCCCCCCC(=O)N1CC(C(C)C)C1=O (racemic) [2-azetidinone, 3-(1-methlethyl)-1-(oxooctyl)-, (±)-]	high activity
